Assay results reported in patent US20230026232A1, “AHR INHIBITORS AND USES THEREOF” (Ikena Oncology, Inc., priority 2019, published 2023).
pIC50: −log10 of the molar value. Entries after “also recorded” stand apart in the source; their conditions may differ.

Columns and labels:
[1] = system: AHR; test: Pharmacodynamics: VAG539-induced CYP1A1 mRNA in mouse liver and spleen; assay type: in vivo, C57BL/6 mice; details: 25 mg/kg Compound A oral
Experimental: The pharmacodynamic effect of Compound A on the inhibition of AHR-dependent gene expression in liver and spleen was examined in C57BL/6 mice.
Mice were sacrificed at 4 and 10 hours post-dose and RNA was extracted and gene expression of CYP1A1 and the housekeeping gene mouse glyceraldehyde 3-phosphate dehydrogenase were quantified. CYP1A1 mRNA expression levels for each dose group for liver and spleen tissues were normalized to the control group.

[2] = target: T1, AHR (Homo sapiens, UniProt P35869); test: HepG2 DRE-Luc reporter assay, VAF347-stimulated luciferase expression; assay type: cell-based; design: endogenous in cells; host or cells: HepG2 DRE-Luc reporter cell line; details: 80 nM VAF347, n=2
T1 sequence (P35869 11-848): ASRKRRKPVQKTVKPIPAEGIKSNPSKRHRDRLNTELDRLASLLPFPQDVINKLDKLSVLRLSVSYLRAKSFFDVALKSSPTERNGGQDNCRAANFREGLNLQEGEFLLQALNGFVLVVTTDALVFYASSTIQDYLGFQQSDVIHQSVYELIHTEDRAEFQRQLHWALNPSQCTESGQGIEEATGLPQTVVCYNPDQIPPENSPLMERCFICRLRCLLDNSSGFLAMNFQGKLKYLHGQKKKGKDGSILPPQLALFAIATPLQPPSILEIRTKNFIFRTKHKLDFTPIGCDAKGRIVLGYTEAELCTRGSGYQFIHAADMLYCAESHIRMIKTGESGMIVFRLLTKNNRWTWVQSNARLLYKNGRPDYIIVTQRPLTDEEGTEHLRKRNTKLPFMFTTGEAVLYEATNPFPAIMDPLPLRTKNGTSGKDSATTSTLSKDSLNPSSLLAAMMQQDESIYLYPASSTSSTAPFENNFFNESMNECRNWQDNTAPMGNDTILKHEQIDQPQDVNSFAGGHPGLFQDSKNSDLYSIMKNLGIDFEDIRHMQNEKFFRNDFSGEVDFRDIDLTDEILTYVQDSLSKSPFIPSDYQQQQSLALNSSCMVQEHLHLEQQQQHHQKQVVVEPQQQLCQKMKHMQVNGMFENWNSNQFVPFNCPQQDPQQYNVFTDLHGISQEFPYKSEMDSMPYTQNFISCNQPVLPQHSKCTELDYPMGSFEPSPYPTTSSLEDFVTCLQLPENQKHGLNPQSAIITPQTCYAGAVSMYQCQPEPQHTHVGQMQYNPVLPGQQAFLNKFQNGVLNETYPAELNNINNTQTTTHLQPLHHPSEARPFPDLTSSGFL
Experimental: In vitro experiments were conducted to examine the inhibitory activity of Compound A for AHR-mediated transcriptional activation in the HepG2 DRE-Luc reporter cell line. This human hepatoma cell line stably expresses a luciferase reporter gene under control of AHR-responsive DRE enhancer elements (Han, 2004). HepG2 DRE-Luc reporter cells were treated with 80 nM VAF347 to activate AHR.
The inhibitory activity of the human Compound A metabolites, Compound B and Compound C was also determined in the HepG2 DRE-Luc cell line. Reporter cells were stimulated with 80 nM VAF347 and each metabolite at multiple concentrations.

[3] = target: T1, AHR; test: CYP1A1 expression in CD3/CD28 activated human T cells (qRT-PCR); assay type: cell-based; design: endogenous in cells; details: 24 hours
Experimental: AHR plays a key role in immune cells and its' inhibition is proposed to reverse immune suppression and activate T cells. The ability of Compound A to inhibit AHR-dependent CYP1A1 expression and cytokine production was assessed in primary human T cells. AHR directly regulates the expression of the immune suppressive cytokine IL-22. Human T cells isolated from healthy donor PBMCs were activated with CD3/CD28 tetramer and incubated for 24 hours with Compound A. Cell pellets were processed for RNA isolation and CYP1A1 analysis by quantitative reverse-transcriptase polymerase chain reaction. For the cytokine analysis assay, CD3/CD28 activated T cells were treated with Compound A, and culture supernatants were collected after 48 hours for analysis of IL-22 levels using Meso Scale Discovery V-plex IL-22 plates. Compound A inhibited AHR-dependent gene expression in activated human T cells by decreasing expression of CYP1A1 in a concentration-dependent manner.

[4] = Phase 1 dose-escalation study: interim cohort pharmacokinetics; assay type: in vivo, human; details: Cycle 2 Day 1 (C2D1)
Experimental: Serial blood samples are obtained to characterize the plasma PK of Compound A and its major active metabolites. The initial sampling strategy is based on the predicted human PK of this compound. If in the course of evaluating the PK, it is determined that an alternative sampling scheme would be more informative, then that alternative sampling scheme may be implemented if the total amount of blood and blood draws obtained for PK is not increased. Moreover, the total number of samples may be decreased at any time if the initial sampling scheme is considered unnecessarily intensive.
Interim cohort pharmacokinetics were assessed on parent (Compound A) and two active metabolites (Compound B and Compound C). […] Compound B metabolite ratio is increased on C2D1 in cohorts above 200 mg dosages. […] Without wishing to be bound or limited by theory, elimination rate limited kinetics likely contributing to the accumulation of Compound B through on-target inhibition of CYP1A1.

[5] = Nonclinical safety studies incl. 28-day GLP study in rat; assay type: in vivo; details: rats
Excerpt: The nonclinical safety of Compound A has been evaluated in a series of pharmacological, single-dose and repeated-dose toxicological studies in rodent and non-rodent species including 28-day Good Laboratory Practice (GLP) studies in rat and monkeys. […] All changes were resolved or resolving after 2 weeks of dosing cessation, except for the testicular changes in rats. The nonclinical safety assessment from these studies supports clinical evaluation of Compound A in humans. The initial planned dose of Compound A for this study is 200 mg once daily (QD), based on evaluation of the Compound A nonclinical safety data.

CC(C)c1cnn2c(N[C@@H]3CCc4[nH]c5ccccc5c4C3)nc(-c3cncc(F)c3)nc12 [Compound A, (R)—N-(2-(5-fluoropyridin-3-yl)-8-isopropylpyrazolo[1,5-a][1,3,5]triazin-4-yl)-2,3,4,9-tetrahydro-1H-carbazol-3-amine]
inhibition of CYP1A1 mRNA increases induced by VAG539 in the liver ([1]; with 30 mg/kg VAG539): Complete inhibition | inhibition of CYP1A1 mRNA induction in the spleen ([1]; with 30 mg/kg VAG539, at 4 hours): complete inhibition | pIC50 [2]: 7.04 | pIC50 [3]: 7.20 | dose proportionality of PK [4]: greater than dose proportional | noteworthy findings in nonclinical safety studies [5]: non-glandular stomach ulceration and edema; also recorded: seminiferous tubule degeneration and debris in the epididymis lumen
